The values below are quoted from earlier work in patent publication US20230218508A1, “BIODEGRADABLE COMPOSITIONS AND IMPLANTS” (RE-VANA THERAPEUTICS LTD, priority 2020, published 2023).

First the molecules themselves.
B1: Ranibizumab (antibody, chains of the INN, looked up, V domains shown)
VH: EVQLVESGGGLVQPGGSLRLSCAASGYDFTHYGMNWVRQAPGKGLEWVGWINTYTGEPTYAADFKRRFTFSLDTSKSTAYLQMNSLRAEDTAVYYCAKYPYYYGTSHWYFDVWGQGTLVTVSS
VL: DIQLTQSPSSLSASVGDRVTITCSASQDISNYLNWYQQKPGKAPKVLIYFTSSLHSGVPSRFSGSGSGTDFTLTISSLQPEDFATYYCQQYSTVPWTFGQGTKVEIK
modifications: Fab
notes: Marketed antibody therapeutic (LUCENTIS®) with molecular weight close to Ovalbumin

For this data set the following is noted: target daily release level; for ranibizumab and BEZ about five times the literature IC50.
As for Bevacizumab [BEZ], the minimum therapeutic level is 0.5 µg/day.

For `CC(C)OC(=O)CCC/C=C\C[C@@H]1[C@@H](CC[C@@H](O)CCc2ccccc2)[C@H](O)C[C@@H]1O` [LP, Latanoprost], the minimum therapeutic level was 0.105 µg/day.

Turning to B1, the minimum therapeutic level was 0.5 µg/day.
